PMC8464850, “Sulfonium Ligands of the α7 nAChR” (Molecules, 2021)

Columns and labels:
human α7 receptors = biological target: T1, human α7 receptors (Homo sapiens, UniProt P36544); assay: Activation of human α7 receptors expressed in Xenopus oocytes, compounds applied alone (two-electrode voltage clamp, net charge); assay type: cell-based; details: for ability to activate α7 when applied alone: 100 µM
T1 construct: expressed in transfected cells; host or cells: Xenopus laevis oocytes (injected RNA)
Experimental: The sulfonium compounds (Figure 1) were evaluated for their ability to activate human α7 receptors expressed in Xenopus oocytes (Figure 2A). Responses were measured as net charge. […] The average net-charge response to 100 µM S1 was 47 ± 6% of the control responses to 60 µM ACh from the same cells.
Figure 2 Responses of α7 nAChR to sulfonium compounds. (A) Net-charge responses to the applications of the test compounds applied at 100 µM. Net charge was calculated as the integrated area of inward current over a 120 s interval following the 30 s-pre-application period used to establish an initial baseline. […] (B) Averaged net-charge responses (±SEM, n = 8) to applications of S1 across a range of concentrations. Responses were measured relative to preceding 60 µM ACh control responses and then adjusted for the difference between ACh controls and ACh maximum responses. See text for curve-fit values.
The human nAChR clones were obtained from Jon Lindstrom (University of Pennsylvania, Philadelphia, PA, USA). Mouse muscle subunit clones were obtained from Jim Boulter (Salk Institute, La Jolla, CA, USA) and Paul Gardner (Dartmouth, Hanover, NH, USA). The human resistance-to-cholinesterase 3 (RIC3) clone was obtained from Millet Treinin (Hebrew University, Jerusalem, Israel) and co-injected with α7 to improve the level and speed of α7 receptor expression without affecting the pharmacological properties of the receptors. Subsequent to linearization and purification of the plasmid DNAs, RNAs were prepared using the mMessage mMachine in vitro RNA transcription kit (Ambion, Austin, TX, USA).
Oocytes were surgically removed from mature female Xenopus laevis frogs (Nasco, Ft. Atkinson, WI, USA) as previously described. Frogs were maintained in the Animal Care Service facility of the University of Florida, and all procedures were approved by the University of Florida Institutional Animal Care and Use Committee (approval number 202002669).
Experiments were conducted using OpusXpress 6000A (Molecular Devices, Union City, CA, USA). Both the voltage and current electrodes were filled with 3 M KCl. Oocytes were voltage-clamped at −60 mV at room temperature (24 °C). The oocytes were bath-perfused with Ringer’s solution (115 mM NaCl, 2.5 mM KCl, 1.8 mM CaCl2, 10 mM HEPES, and 1 μM atropine, pH 7.2) at 2 mL/min for α7 receptors, or 4 mL/min for heteromeric nAChR. To evaluate the effects of experimental compounds, responses were compared to control ACh-evoked responses, defined as the average of two initial applications of ACh made before test applications. ACh control concentrations were 60 µM for α7 receptors; 100 µM for α4(3)β2(2) and α3β4 receptors; 30 µM for α4β2α6β2β3 and muscle-type (αβ1εδ) receptors; and 10 µM for α4(3)β2(2) and α4(2)β2(2)α5 receptors.
Solutions were applied from 96-well plates via disposable tips. Drug applications were 12 s in duration, followed by 181 s washout periods for α7 receptors, or 6 s in duration followed by 301 s washout periods for heteromeric nAChR. The responses were calculated as both peak current amplitudes and net charge, as previously described. Data were collected at 50 Hz, filtered at 20 Hz for α7 receptors or filtered at 5 Hz for heteromeric nAChR, and analyzed by Clampfit (Molecular Devices, San Jose, CA, USA) and Excel (Microsoft, Redmond, WA, USA). Data were expressed as means ± SEM from at least four oocytes for each experiment and plotted with Kaleidagraph 4.5.2 (Abelbeck Software, Reading, PA, USA). Multi-cell averages were calculated for comparisons of complex responses. Averages of the normalized data were calculated for each of the 10,322 points in each of the 206.44 s traces (acquired at 50 Hz), as well as the standard errors for those averages.

β3α4 β2α6β2 = biological target: T2, β3α4 β2α6β2 (Homo sapiens, UniProt P17787+P43681+Q15825); assay: Activation of heteromeric nAChR by S1: β3α4β2α6β2 concatamer; assay type: cell-based
T2 construct: expressed in transfected cells; host or cells: Xenopus laevis oocytes (injected RNA)
From the text: (§1) Concatamers were used in order to obtain heteromeric receptors with known subunit composition. The β2-6-α4 concatamer was co-expressed with monomeric α4, β2, or α5 to obtain receptors with the composition α4(3)β2(2), α4(2)β2(3), or α4(2)β2(2)α5, respectively. A concatamer of five linked subunits was used to obtain the β3α4 β2α6β2 receptors. The α3β4 receptors were formed from the co-expression of α3 and β4 subunit monomers at equal ratios. Note that the data were initially measured relative to internal ACh control responses for each oocyte (Methods). Responses were subsequently adjusted for the relative values of the ACh controls and the ACh maximum responses for each of the various subtypes, determined in previous experiments.
Figure 6 Activation of heteromeric neuronal nAChR by S1. […] Data are the average peak currents (n = 6–8 oocytes ± SEM), measured relative to initial ACh control responses for each oocyte (concentrations listed in Methods). Responses were subsequently adjusted for the relative values of the ACh controls and the ACh maximum responses for each of the various subtypes, determined in previous experiments. […]
Solutions were applied from 96-well plates via disposable tips. […] The responses were calculated as both peak current amplitudes and net charge, as previously described. […] Multi-cell averages were calculated for comparisons of complex responses. […]

[1] = system: neuronal heteromeric receptors; assay: Activation of neuronal heteromeric nAChR (panel); assay type: cell-based, human; details: all heteromeric subtypes tested
From the text: as §1, with “experiments. […]” for “experiments.”
Solutions were applied from 96-well plates via disposable tips. […] The responses were calculated as both peak current amplitudes and net charge, as previously described. Data were collected at 50 Hz, filtered at 20 Hz for α7 receptors or filtered at 5 Hz for heteromeric nAChR, and analyzed by Clampfit (Molecular Devices, San Jose, CA, USA) and Excel (Microsoft, Redmond, WA, USA). Data were expressed as means ± SEM from at least four oocytes for each experiment and plotted with Kaleidagraph 4.5.2 (Abelbeck Software, Reading, PA, USA). Multi-cell averages were calculated for comparisons of complex responses. […]

T1 sequence (P36544 23-502): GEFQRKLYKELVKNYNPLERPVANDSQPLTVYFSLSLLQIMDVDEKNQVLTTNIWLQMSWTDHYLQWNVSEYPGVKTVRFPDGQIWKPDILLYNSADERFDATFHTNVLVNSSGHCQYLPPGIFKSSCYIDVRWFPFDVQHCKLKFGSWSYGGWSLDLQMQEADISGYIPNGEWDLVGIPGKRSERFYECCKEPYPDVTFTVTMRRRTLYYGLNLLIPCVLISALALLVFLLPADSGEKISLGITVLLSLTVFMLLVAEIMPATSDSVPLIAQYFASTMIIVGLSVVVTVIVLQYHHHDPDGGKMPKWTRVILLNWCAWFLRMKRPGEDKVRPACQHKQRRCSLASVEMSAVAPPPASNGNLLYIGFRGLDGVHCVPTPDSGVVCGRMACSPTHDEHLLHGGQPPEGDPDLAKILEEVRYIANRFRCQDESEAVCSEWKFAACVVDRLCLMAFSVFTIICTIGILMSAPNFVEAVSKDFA
T2 sequence (P43681 29-627 limits assumed): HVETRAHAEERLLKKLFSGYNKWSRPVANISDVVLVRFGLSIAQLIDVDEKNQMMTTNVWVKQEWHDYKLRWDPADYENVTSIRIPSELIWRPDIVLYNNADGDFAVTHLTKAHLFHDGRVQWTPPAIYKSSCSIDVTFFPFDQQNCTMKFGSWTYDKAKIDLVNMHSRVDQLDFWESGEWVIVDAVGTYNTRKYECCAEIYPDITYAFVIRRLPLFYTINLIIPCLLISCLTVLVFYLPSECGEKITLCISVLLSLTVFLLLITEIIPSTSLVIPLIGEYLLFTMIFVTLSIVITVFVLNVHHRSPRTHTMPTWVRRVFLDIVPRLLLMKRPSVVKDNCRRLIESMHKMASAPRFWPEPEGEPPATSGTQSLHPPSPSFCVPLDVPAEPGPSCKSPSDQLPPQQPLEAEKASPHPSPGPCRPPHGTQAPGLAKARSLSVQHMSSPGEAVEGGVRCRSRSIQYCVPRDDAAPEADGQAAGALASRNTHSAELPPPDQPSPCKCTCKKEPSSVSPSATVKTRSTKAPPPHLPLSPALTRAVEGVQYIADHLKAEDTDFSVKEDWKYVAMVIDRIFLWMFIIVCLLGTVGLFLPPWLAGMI
T2 sequence (P17787 26-502): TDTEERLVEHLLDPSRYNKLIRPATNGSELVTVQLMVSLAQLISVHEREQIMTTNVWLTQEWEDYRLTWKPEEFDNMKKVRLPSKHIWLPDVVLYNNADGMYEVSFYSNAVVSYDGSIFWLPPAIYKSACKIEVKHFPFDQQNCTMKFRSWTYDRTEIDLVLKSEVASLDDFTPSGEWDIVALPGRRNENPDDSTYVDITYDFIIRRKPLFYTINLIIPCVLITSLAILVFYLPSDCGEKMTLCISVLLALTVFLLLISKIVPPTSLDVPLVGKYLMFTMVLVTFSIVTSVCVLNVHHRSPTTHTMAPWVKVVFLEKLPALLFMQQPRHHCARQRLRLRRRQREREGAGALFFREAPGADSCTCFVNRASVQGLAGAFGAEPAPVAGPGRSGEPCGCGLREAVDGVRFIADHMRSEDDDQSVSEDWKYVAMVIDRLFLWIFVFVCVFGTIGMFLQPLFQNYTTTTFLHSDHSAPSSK
T2 sequence (Q15825 26-494): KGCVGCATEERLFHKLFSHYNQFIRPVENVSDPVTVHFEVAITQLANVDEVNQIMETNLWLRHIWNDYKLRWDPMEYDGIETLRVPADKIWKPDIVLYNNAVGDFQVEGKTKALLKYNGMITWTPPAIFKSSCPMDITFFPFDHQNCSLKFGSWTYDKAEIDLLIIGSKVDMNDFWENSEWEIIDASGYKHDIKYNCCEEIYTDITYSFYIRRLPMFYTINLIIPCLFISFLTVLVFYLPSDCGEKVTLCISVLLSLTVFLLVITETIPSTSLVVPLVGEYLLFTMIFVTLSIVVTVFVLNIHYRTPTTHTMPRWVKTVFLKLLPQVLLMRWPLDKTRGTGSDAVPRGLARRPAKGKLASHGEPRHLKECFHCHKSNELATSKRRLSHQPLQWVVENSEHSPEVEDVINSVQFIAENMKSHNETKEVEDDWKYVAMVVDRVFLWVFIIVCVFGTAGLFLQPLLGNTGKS

C[S+](C)C.[I-] [Compound S1, trimethylsulfonium iodide]
average net-charge response, % of the control responses to 60 µM ACh (human α7 receptors; 100 µM compound applied alone, same cells): 47 ± 6% | ability to activate α7 when applied alone (human α7 receptors; net charge): activated receptors | ability to activate α7 when applied alone (human α7 receptors; net charge, listed as trimethylsulfonium): partial agonist | Imax (human α7 receptors; net charge, n = 8, normalized to ACh maximum, Hill fit): 84 ± 0.3 % ACh Imax | EC50 (human α7 receptors; α7, Hill fit, Table 2, unit printed in text b9 only, read-out: EC50 (S1 Activation)): 98 ± 0.5 µM | IMax (S1 Activation) (human α7 receptors; α7, relative to ACh maximum, Hill fit, Table 2): 0.84 ± 0.01 | IMax (S1 Activation) (β3α4 β2α6β2; peak currents relative to ACh maximum): 0.71 ± 0.35 | EC50 (β3α4 β2α6β2; peak currents, unit inferred): 333 ± 51 µM | activation of neuronal heteromeric receptors [1]: activates all the neuronal heteromeric receptors tested
